Measured values taken from ChEMBL document CHEMBL5550099, “Synthesis and biological activity of 11-Oxygenated and heterocyclic estrone analogs in pancreatic cancer monolayers and 3D spheroids” (Bioorg Med Chem, 2024).
Active and inactive are the calls of the source. The rule behind the calls is not given here.

Columns and labels:
PANC-1 [1] = assay: Cytotoxicity against human PANC-1 cells incubated for 48 hrs by MTT assay; format: functional, cell-based; details: PANC-1, 48 h
ASPC1 = assay: Cytotoxicity against human ASPC1 cells incubated for 48 hrs by MTT assay; format: functional, cell-based; details: ASPC1, 48 h
PANC-1 [2] = assay: Cytotoxicity against human PANC-1 cells co-cultured with human pancreatic stellate cells assessed as reduction in spheroid growth rate at 0.1 to 100 uM measured every two days by microscopic analysis; format: functional, cell-based; details: dose 0.1-100 µM
PANC-1 [3] = assay: Induction of apoptosis in human PANC-1 cells cultured as 3D spheroids assessed as increase in caspase-3/7 activity upto 50 uM incubated for 48 hrs by Glo-max luminescence assay relative to control; format: functional; details: up to 50 µM
PANC-1 [4] = assay: Cytotoxicity against human PANC-1 cells cultured as 3D spheroids assessed as reduction in spheroid growth rate at 0.1 to 100 uM measured every two days by microscopic analysis; format: functional, cell-based; details: dose 0.1-100 µM
BXPC-3 = assay: Cytotoxicity against human BXPC-3 cells incubated for 48 hrs by MTT assay; format: functional, cell-based; details: BXPC-3, 48 h
PANC-1 [5] = assay: Induction of apoptosis in human PANC-1 cells co-cultured with human pancreatic stellate cells assessed as increase in caspase-3/7 activity upto 50 uM incubated for 48 hrs by Glo-max luminescence assay relative to control; format: functional; details: up to 50 µM
PANC-1 [6] = assay: Cytotoxicity against human PANC-1 cells cultured as 3D spheroids incubated for 48 hrs by Cell-titer glo luminescence assay; format: functional, cell-based; details: PANC-1, 48 h
PANC-1 [7] = assay: Induction of cell cycle arrest in human PANC-1 cells assessed as accumulation of cells at G2 phase at IC50 measured after 72 hrs by propidium iodide/RNase 141 staining based flow cytometry; format: functional
PANC-1 [8] = assay: Induction of apoptosis in human PANC-1 cells cultured as 3D spheroids assessed as decrease in caspase-3/7 activity by measuring reduction in cell number at 1 to 10 uM incubated for 48 hrs by Glo-max luminescence assay; format: functional, cell-based; details: dose 1-10 µM
PANC-1 [9] = assay: Cytotoxicity against human PANC-1 cells co-cultured with human pancreatic stellate cells incubated for 48 hrs by MTT assay; format: functional, cell-based
PANC-1 [10] = assay: Cytotoxicity against human PANC-1 cells co-cultured with human pancreatic stellate cells incubated for 48 hrs by Cell-titer glo luminescence assay; format: functional, cell-based; details: PANC-1, 48 h
PANC-1 [11] = assay: Induction of apoptosis in human PANC-1 cells co-cultured with human pancreatic stellate cells assessed as decrease in caspase-3/7 activity by measuring reduction in cell number at 1 to 10 uM incubated for 48 hrs by Glo-max luminescence assay; format: functional, cell-based; details: dose 1-10 µM
PANC-1 [12] = assay: Induction of apoptosis in human PANC-1 cells cultured as 3D spheroids assessed as fold increase in caspase-3/7 activity at 0.1 uM incubated for 48 hrs by Glo-max luminescence assay; format: functional
PANC-1 [13] = assay: Induction of apoptosis in human PANC-1 cells co-cultured with human pancreatic stellate cells assessed as fold increase in caspase-3/7 activity at 0.1 uM incubated for 48 hrs by Glo-max luminescence assay; format: functional
PANC-1 [14] = assay: Cytotoxicity against human PANC-1 cells cultured as 3D spheroids assessed as inhibition of spheroid growth rate at 10 uM measured every two days by microscopic analysis; format: functional, cell-based
PANC-1 [15] = assay: Induction of cell cycle arrest in human PANC-1 cells assessed as accumulation of cells at G1 phase at IC50 measured after 72 hrs by propidium iodide/RNase 141 staining based flow cytometry; format: functional
PANC-1 [16] = assay: Cytotoxicity against human PANC-1 cells co-cultured with human pancreatic stellate cells assessed as inhibition of spheroid growth rate at 10 uM measured every two days by microscopic analysis; format: functional, cell-based

## C[C@](O)(C(=O)/C=C/c1cccs1)C1CC[C@H]2[C@@H]3CCc4cc(O)ccc4[C@H]3CC[C@]12C (some centres undefined)
PANC-1 [1]
  IC50: 41.7 µM
ASPC1
  IC50: > 50 µM

## C[C@](O)(C(=O)/C=C/c1ccc(Cl)o1)C1CC[C@H]2[C@@H]3CCc4cc(O)ccc4[C@H]3CC[C@]12C (some centres undefined)
PANC-1 [1]
  IC50: 10.2 µM
ASPC1
  IC50: > 50 µM

## COc1ccc2c(c1)CC[C@@H]1[C@@H]2CC[C@]2(C)C([C@@](C)(O)C(=O)/C=C/c3ccc(C)s3)CC[C@@H]12 (some centres undefined)
PANC-1 [1]
  IC50: > 50 µM
ASPC1
  IC50: > 50 µM

## C[C@](O)(C(=O)/C=C/c1ccc(Cl)s1)C1CC[C@H]2[C@@H]3CCc4cc(O)ccc4[C@H]3CC[C@]12C (some centres undefined)
PANC-1 [1]
  IC50: 39.8 µM
ASPC1
  IC50: > 50 µM

## COc1ccc2c(c1)CC[C@@H]1[C@@H]2CC[C@]2(C)C([C@@](C)(O)C(=O)/C=C/c3cccs3)CC[C@@H]12 (some centres undefined)
PANC-1 [1]
  IC50: 38.2 µM
ASPC1
  IC50: > 50 µM

## Nc1ccn([C@@H]2O[C@H](CO)[C@@H](O)C2(F)F)c(=O)n1 [GEMCITABINE]
PANC-1 [1]
  IC50: > 50 µM
PANC-1 [2]
  Activity: Active
PANC-1 [3]
  Activity: 20%
PANC-1 [4]
  Activity: Active
BXPC-3
  IC50: > 50 µM
ASPC1
  IC50: > 50 µM
PANC-1 [5]
  Activity: 20%

## COc1ccc2c(c1)CC[C@@H]1[C@@H]2CC[C@]2(C)C([C@@](C)(O)C(=O)/C=C/c3ccc(Cl)s3)CC[C@@H]12 (some centres undefined)
PANC-1 [1]
  IC50: 33.4 µM
ASPC1
  IC50: > 50 µM

## C[C@](O)(C(=O)/C=C/c1cccs1)C1CC[C@H]2[C@@H]3CCc4cc(OS(N)(=O)=O)ccc4[C@H]3CC[C@]12C (some centres undefined)
PANC-1 [1]
  IC50: 53 µM
ASPC1
  IC50: 48.4 µM

## Cc1ccc(/C=C/C(=O)[C@](C)(O)C2CC[C@H]3[C@@H]4CCc5cc(OS(N)(=O)=O)ccc5[C@H]4CC[C@]23C)s1 (some centres undefined)
PANC-1 [1]
  IC50: > 50 µM
ASPC1
  IC50: 38.4 µM

## COc1ccc2c(c1)CC[C@@H]1[C@@H]2[C@H](O)C[C@]2(C)C([C@@](C)(O)C(=O)/C=C/c3ccc(C(F)(F)F)cc3)CC[C@@H]12 (some centres undefined)
PANC-1 [1]
  IC50: 6.52 µM
PANC-1 [6]
  IC50: 37.5 µM
PANC-1 [7]
  Activity: Active
PANC-1 [8]
  Activity: Active
PANC-1 [9]
  Activity: Active
PANC-1 [10]
  IC50: > 50 µM
PANC-1 [11]
  Activity: Active
PANC-1 [12]
  fold change (FC): 1.5
BXPC-3
  IC50: 6.07 µM
PANC-1 [13]
  fold change (FC): 1.5
ASPC1
  IC50: 11.5 µM

## COc1ccc2c(c1)CC[C@@H]1[C@@H]2[C@H](O)C[C@]2(C)C([C@@](C)(O)C(=O)/C=C/C(C)(C)O)CC[C@@H]12 (some centres undefined)
PANC-1 [1]
  IC50: 11.8 µM
PANC-1 [6]
  IC50: 37.5 µM
PANC-1 [7]
  Activity: Active
PANC-1 [8]
  Activity: Active
PANC-1 [9]
  Activity: Active
PANC-1 [10]
  IC50: 39.5 µM
PANC-1 [11]
  Activity: Active
PANC-1 [12]
  fold change (FC): 1.5
BXPC-3
  IC50: 10.1 µM
PANC-1 [13]
  fold change (FC): 1.5
ASPC1
  IC50: 17.3 µM

## COc1ccc2c(c1)CC[C@@H]1[C@@H]2C(=O)C[C@]2(C)C([C@@](C)(O)C(=O)/C=C/c3ccc(C(F)(F)F)cc3)CC[C@@H]12 (some centres undefined)
PANC-1 [14]
  Activity: Active
PANC-1 [1]
  IC50: 5.28 µM
PANC-1 [6]
  IC50: 21 µM
PANC-1 [8]
  Activity: Active
PANC-1 [9]
  Activity: Active
PANC-1 [10]
  IC50: 24.3 µM
PANC-1 [11]
  Activity: Active
PANC-1 [15]
  Activity: Active
PANC-1 [12]
  fold change (FC): 1.5
BXPC-3
  IC50: 5.7 µM
PANC-1 [13]
  fold change (FC): 1.5
ASPC1
  IC50: 4.17 µM
PANC-1 [16]
  Activity: Active

## C[C@](O)(C(=O)/C=C/c1ccc(Cl)s1)C1CC[C@H]2[C@@H]3CCc4cc(OS(N)(=O)=O)ccc4[C@H]3CC[C@]12C (some centres undefined)
PANC-1 [1]
  IC50: > 50 µM
ASPC1
  IC50: > 50 µM

## Cc1ccc(/C=C/C(=O)[C@](C)(O)C2CC[C@H]3[C@@H]4CCc5cc(O)ccc5[C@H]4CC[C@]23C)s1 (some centres undefined)
PANC-1 [1]
  IC50: > 50 µM
ASPC1
  IC50: 46.5 µM

## COc1ccc2c(c1)CC[C@@H]1[C@@H]2CC[C@]2(C)C([C@@](C)(O)C(=O)/C=C/c3ccc(Cl)o3)CC[C@@H]12 (some centres undefined)
PANC-1 [1]
  IC50: > 50 µM
ASPC1
  IC50: 40.2 µM
